# From patent US7989496B2, “Transdermal delivery of ketoprofen polar derivatives” (Noven Pharmaceuticals, Inc., priority 2006, dated 2011)
# Test: Human cadaver skin permeation study in modified Franz diffusion cells
# Settings: for 72 hr Cumulative Permeation: drug-in-adhesive formulation, human cadaver stratum corneum, Franz cells, 32° C.; for transdermal delivery rate compared with ketoprofen: previous work by the inventor on non-polar ketoprofen derivatives; for delivery rate (average flux through cadaver skin), FIG. 2: ketoprofen, polar and non-polar derivatives
smiles,measurement,setting,value
CCOC(=O)C(C)c1cccc(C(=O)c2ccccc2)c1 (stereo not shown) [Ketoprofen Ethyl Ester],72 hr Cumulative Permeation,,170 µg/cm²
same,transdermal delivery rate compared with ketoprofen,,lower delivery rates than ketoprofen
CC(C)OC(=O)C(C)c1cccc(C(=O)c2ccccc2)c1 (stereo not shown) [Ketoprofen Isopropyl Ester],72 hr Cumulative Permeation,,61.2 µg/cm²
same,transdermal delivery rate compared with ketoprofen,,lower delivery rates than ketoprofen
CC(C(=O)OCC(O)CO)c1cccc(C(=O)c2ccccc2)c1 (stereo not shown) [Ketoprofen Monoglycerol Ester],72 hr Cumulative Permeation,,214 µg/cm²
same,"delivery rate (average flux through cadaver skin), FIG. 2",cadaver skin in Franz cells,faster delivery rate than each of the non-polar ester derivatives tested
"CC(C(=O)O)c1cccc(C(=O)c2ccccc2)c1 (stereo not shown) [Ketoprofen, 2-(3-benzoyl-phenyl)-propionic acid]","delivery rate (average flux through cadaver skin), FIG. 2",cadaver skin in Franz cells,highest delivery rate
same,skin permeation over 72 hours,over 72 hours,about 1110 μg/cm^2
COC(=O)C(C)c1cccc(C(=O)c2ccccc2)c1 (stereo not shown) [methyl ester of ketoprofen],"delivery rate (average flux through cadaver skin), FIG. 1","non-polar ketoprofen derivatives, approximate 84 hour time period, cadaver skin in Franz cells",faster delivery rate than each of the ethyl ester and isopropyl ester
same,transdermal delivery rate compared with ketoprofen,,lower delivery rates than ketoprofen
